For four compounds, Activity and IC50 results are on record in ChEMBL document CHEMBL6127062, “Targeted degradation of METTL3 against acute myeloid leukemia and gastric cancer” (Eur J Med Chem, 2024).

Broadly, the IC50 is the concentration needed to halve the response being measured.

For one experiment, the system named is AGS. Put plainly: Anticancer activity against human AGS cells assessed as inhibition of cell growth incubated for 72 hrs by cell viability assay. Type of experiment: functional, cell-based.
The subject of the next experiment is GES1. Put plainly: Anticancer activity against human GES1 cells assessed as inhibition of cell growth incubated for 72 hrs by cell viability assay. It is filed as functional, cell-based.
A further experiment deals with MOLM-13. The experiment is described as follows: Antiproliferative activity against human MOLM-13 cells assessed as inhibition of cell proliferation measured after 72 hrs by Celltiter Glo luminescent cell viability assay. The following applies: MOLM-13, 72 h. Type of experiment: functional, cell-based. Background: In ATP-based viability assays light output follows the ATP content of the culture.

The next experiment relates to SNU-484. The experiment is described as follows: Anticancer activity against human SNU484 cells assessed as inhibition of cell growth incubated for 72 hrs by cell viability assay. Type of experiment: functional, cell-based.
The target of experiment [1] is T1, von Hippel-Lindau disease tumor suppressor/N(6)-adenosine-methyltransferase catalytic subunit METTL3 (Homo sapiens, UniProt P40337+Q86U44). Put plainly: PROTAC activity at VHL/METTL3 (unknown origin) expressed in HeLa cells assessed as reduction in BRD4-eGFP_mCherry level incubated for 4 hrs in presence of MZ1 by flow cytometry analysis. It is filed as cell-based. A general note: A flow cytometer gives signals particle by particle.
T1 sequence (Q86U44 2-580 partner limits assumed): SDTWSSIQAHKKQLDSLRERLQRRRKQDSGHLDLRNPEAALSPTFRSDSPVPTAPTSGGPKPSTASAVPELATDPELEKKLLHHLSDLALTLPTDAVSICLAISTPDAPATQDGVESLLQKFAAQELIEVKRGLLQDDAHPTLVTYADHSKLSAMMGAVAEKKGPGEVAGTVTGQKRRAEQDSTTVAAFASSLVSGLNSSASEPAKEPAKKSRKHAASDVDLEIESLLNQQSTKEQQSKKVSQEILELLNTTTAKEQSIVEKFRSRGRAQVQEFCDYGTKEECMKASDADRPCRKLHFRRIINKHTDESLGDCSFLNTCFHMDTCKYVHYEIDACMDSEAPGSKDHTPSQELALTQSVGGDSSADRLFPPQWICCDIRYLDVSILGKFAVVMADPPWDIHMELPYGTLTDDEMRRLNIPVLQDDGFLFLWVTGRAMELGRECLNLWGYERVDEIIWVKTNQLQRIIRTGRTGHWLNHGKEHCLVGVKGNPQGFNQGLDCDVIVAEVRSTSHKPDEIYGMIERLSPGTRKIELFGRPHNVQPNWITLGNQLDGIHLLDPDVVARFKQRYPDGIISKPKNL
T1 sequence (P40337 whole entry): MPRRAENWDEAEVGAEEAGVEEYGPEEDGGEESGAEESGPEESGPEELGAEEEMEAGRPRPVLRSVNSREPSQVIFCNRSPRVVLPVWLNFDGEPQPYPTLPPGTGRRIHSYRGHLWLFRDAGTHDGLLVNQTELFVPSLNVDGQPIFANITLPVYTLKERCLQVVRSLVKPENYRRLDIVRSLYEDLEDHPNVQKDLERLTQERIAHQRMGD

In experiment [2] the target is T1, von Hippel-Lindau disease tumor suppressor/N(6)-adenosine-methyltransferase catalytic subunit METTL3. The experiment is described as follows: PROTAC activity at VHL/METTL3 in human MOLM-13 cells assessed as reduction in METTL3 level at 1 uM incubated for 24 hrs by Western blot analysis. It is filed as cell-based. (In western blotting, separated proteins are transferred to a membrane and probed.)

The target in experiment [3] is N6-adenosine-methyltransferase catalytic subunit (Homo sapiens) (UniProt Q86U44). The experiment is described as follows: Induction of thermal stabilization of METTL3 in human MOLM-13 cells at 52.4 to 54.8 degreeC incubated for 1 hrs by cellular thermal shift assay. Type of experiment: cell-based.
N6-adenosine-methyltransferase catalytic subunit (Homo sapiens), sequence (Q86U44 whole entry, the tested form may be a part): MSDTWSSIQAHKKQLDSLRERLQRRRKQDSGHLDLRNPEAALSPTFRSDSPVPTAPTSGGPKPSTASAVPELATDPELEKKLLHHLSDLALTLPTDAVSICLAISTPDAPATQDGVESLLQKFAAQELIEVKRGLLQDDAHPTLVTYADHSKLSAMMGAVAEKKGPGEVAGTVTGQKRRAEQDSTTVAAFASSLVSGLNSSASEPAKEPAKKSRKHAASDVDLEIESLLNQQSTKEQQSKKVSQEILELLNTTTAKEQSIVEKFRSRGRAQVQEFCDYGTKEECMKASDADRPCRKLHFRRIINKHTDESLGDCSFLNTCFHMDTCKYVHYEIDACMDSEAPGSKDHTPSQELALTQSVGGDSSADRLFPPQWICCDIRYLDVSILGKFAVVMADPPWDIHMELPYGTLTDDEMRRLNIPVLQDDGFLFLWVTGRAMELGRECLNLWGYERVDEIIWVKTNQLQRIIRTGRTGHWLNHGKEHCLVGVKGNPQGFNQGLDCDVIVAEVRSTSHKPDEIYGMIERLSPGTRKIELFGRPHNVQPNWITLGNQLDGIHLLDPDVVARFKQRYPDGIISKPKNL
The test system of another experiment is HeLa. The experiment is described as follows: Binding affinity to METTL3/GFP-fused BRD4 (unknown origin) expressed in HeLa cells presence of MZ1 by Western blot analysis. It is filed as cell-based. The settings on record: Homo sapiens.
Experiment [4] has as its target T2, Protein cereblon/N(6)-adenosine-methyltransferase catalytic subunit METTL3 (Homo sapiens) (UniProt Q96SW2+Q86U44). Put plainly: PROTAC activity at CRBN/METTL3 in human MOLM-13 cells assessed as induction of METTL3 degradation at 1 uM by Western blot analysis relative to control. It is filed as cell-based.
For experiment [5], the target named is T2, Protein cereblon/N(6)-adenosine-methyltransferase catalytic subunit METTL3 (Homo sapiens). The experiment is described as follows: PROTAC activity at CRBN/METTL3 in human MOLM-13 cells assessed as induction of METTL3 degradation at 10 uM by Western blot analysis relative to control. Type of experiment: cell-based.
Experiment [6] concerns the target T1, von Hippel-Lindau disease tumor suppressor/N(6)-adenosine-methyltransferase catalytic subunit METTL3. The experiment is described as follows: PROTAC activity at VHL/METTL3 in human MOLM-13 cells assessed as induction of METTL3 degradation at 10 uM by Western blot analysis relative to control. It is filed as cell-based.
Experiment [7] has the same target. Put plainly: PROTAC activity at VHL/METTL3 in human MOLM-13 cells assessed as induction of METTL3 degradation at 1 uM by Western blot analysis relative to control. Type of experiment: cell-based.

SMILES strings stand for the structures. Calls of active or inactive are those of the source. The calls are words filed in the database; no cut-off is given here.

T2 sequence (Q86U44 whole entry, looked up): as the sequence (Q86U44 whole entry, the tested form may be a part) above
T2 sequence (Q96SW2 whole entry, looked up): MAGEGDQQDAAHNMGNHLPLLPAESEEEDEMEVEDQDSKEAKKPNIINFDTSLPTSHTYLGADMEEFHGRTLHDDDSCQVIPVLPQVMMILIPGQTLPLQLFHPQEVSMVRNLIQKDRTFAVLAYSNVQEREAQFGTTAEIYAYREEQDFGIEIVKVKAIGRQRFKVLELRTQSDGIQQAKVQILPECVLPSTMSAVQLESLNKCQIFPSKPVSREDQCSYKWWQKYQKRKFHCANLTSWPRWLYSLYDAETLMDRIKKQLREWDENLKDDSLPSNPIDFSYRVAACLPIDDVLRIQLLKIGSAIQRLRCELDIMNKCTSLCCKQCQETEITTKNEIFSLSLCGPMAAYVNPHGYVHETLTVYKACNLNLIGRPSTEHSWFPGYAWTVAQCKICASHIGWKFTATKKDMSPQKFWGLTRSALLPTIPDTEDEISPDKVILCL

In the case of `O=C(NCc1cn2cc(CNCC3CCCCC3)ccc2n1)c1cc(=O)n2ccccc2n1`, the outcome in the experiment with AGS, in the experiment with GES1 and in the experiment with SNU-484 was inactive. Moreover, in the experiment with MOLM-13, the IC50 came out at 5.47 µM.

Consider `Cc1ncsc1-c1ccc(CNC(=O)[C@@H]2C[C@H](O)CN2C(=O)[C@@H](NC(=O)CCCCCCCNc2cc(N3CCC4(CC3)CN(c3cc(F)c(CN5CCC(C)(C)CC5)cc3F)CC(=O)N4)ncn2)C(C)(C)C)cc1`, for which the result (in experiment [1]; in experiment [3]; in the experiment with HeLa) was Active. Moreover, the outcome in experiment [2] was inactive.

Regarding `CC1(C)CCN(Cc2cc(F)c(N3CC(=O)NC4(CCN(c5cc(NCCCCCCCCCCC(=O)N6CCN(c7ccc8c(c7)C(=O)N(C7CCC(=O)NC7=O)C8=O)CC6)ncn5)CC4)C3)cc2F)CC1` (configuration not stated), the Activity in [4] is 9%; in [5] it was 22%.

With `Cc1ncsc1-c1ccc(CNC(=O)[C@@H]2C[C@@H](O)CN2C(=O)[C@@H](NC(=O)CCCCCCCCCCNc2cc(N3CCC4(CC3)CN(c3cc(F)c(CN5CCC(C)(C)CC5)cc3F)CC(=O)N4)ncn2)C(C)(C)C)cc1`, the Activity came to 55% in experiment [6] and 34% in experiment [7].
